Laboratory results: PubChem BioAssay AID330 (DTP/NCI, 2004)
“And” between values parts separate entries of the source, which are not always exact repeats. Equal entries are not always repeated. Toxic doses and inconclusive results are not listed.

Test system: P388 leukemia ip, CD2F1 mice, survival T/C
Experiment: NCI In Vivo Anticancer Drug Screen. Data for tumor model P388 Leukemia (intraperitoneal) in CD2F1 (CDF1) mice
Conditions: endpoint: median survival time, higher = longer survival
Procedure, shortened: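 Mice carrying the transplanted tumor received test compound or vehicle. Survival was recorded in each group, and the value is the treated-group measurement divided by that of the vehicle-treated control group.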

[1] = dose: 60.0 mg/kg/injection, schedule: Q01DX005 (ip), vehicle: saline with Tween-80
[2] = dose: 120.0 mg/kg/injection, schedule: Q01DX005 (ip), vehicle: saline with Tween-80
[3] = dose: 240.0 mg/kg/injection, schedule: Q01DX005 (ip), vehicle: saline with Tween-80
[4] = dose: 100.0 mg/kg/injection, schedule: Q04DX003 (ip), vehicle: saline
[5] = dose: 200.0 mg/kg/injection, schedule: Q04DX003 (ip), vehicle: saline
[6] = dose: 400.0 mg/kg/injection, schedule: Q04DX003 (ip), vehicle: saline
[7] = dose: 50.0 mg/kg/injection, schedule: Q01DX009 (ip), vehicle: saline
[8] = dose: 100.0 mg/kg/injection, schedule: Q01DX009 (ip), vehicle: saline
[9] = dose: 200.0 mg/kg/injection, schedule: Q01DX009 (ip), vehicle: saline
[10] = dose: 12.5 mg/kg/injection, schedule: Q01DX009 (ip), vehicle: Klucel (hydroxypropylcellulose) (HPC)
[11] = dose: 12.5 mg/kg/injection, schedule: Q01DX009 (ip), vehicle: saline
[12] = dose: 25.0 mg/kg/injection, schedule: Q01DX009 (ip), vehicle: saline
[13] = dose: 12.5 mg/kg/injection, schedule: Q01DX009 (ip), vehicle: saline with Tween-80
[14] = dose: 25.0 mg/kg/injection, schedule: Q01DX009 (ip), vehicle: saline with Tween-80

## CSc1cccc2c(NCCCCCCCCNc3c4ccccc4nc4c(SC)cccc34)c3ccccc3nc12
dose: 0.32 mg/kg/injection, schedule: Q01DX009 (ip), vehicle: other
  T/C: 101 % of control
dose: 0.63 mg/kg/injection, schedule: Q01DX009 (ip), vehicle: other
  T/C: 104 % of control
dose: 1.25 mg/kg/injection, schedule: Q01DX009 (ip), vehicle: other
  T/C: 113 % of control
dose: 2.5 mg/kg/injection, schedule: Q01DX009 (ip), vehicle: other
  T/C: 113 % of control
dose: 5.0 mg/kg/injection, schedule: Q01DX009 (ip), vehicle: other
  T/C: 109 % of control
dose: 10.0 mg/kg/injection, schedule: Q01DX009 (ip), vehicle: other
  T/C: 111 % of control

## Cc1onc(-c2c(F)cccc2Cl)c1C(=O)OCc1c(F)cccc1Cl
[1]
  T/C: 99 % of control
[2]
  T/C: 97 % of control
[3]
  T/C: 97 % of control

## CN(/N=C/c1ccc(Cl)cc1)P(=O)(N1CC1)N1CC1
dose: 6.25 mg/kg/injection, schedule: Q01DX005 (ip), vehicle: saline with Tween-80
  T/C: 116 % of control
dose: 12.5 mg/kg/injection, schedule: Q01DX005 (ip), vehicle: saline with Tween-80
  T/C: 116 % of control
dose: 50.0 mg/kg/injection, schedule: Q01DX005 (ip), vehicle: saline with Tween-80
  T/C: 171 % of control

## CCC/C(=N/NC(N)=O)C(OC)OC
dose: 37.5 mg/kg/injection, schedule: Q01DX009 (ip), vehicle: saline
  T/C: 92 % of control
dose: 75.0 mg/kg/injection, schedule: Q01DX009 (ip), vehicle: saline
  T/C: 90 % of control

## CN1C(c2ccccc2)CC(=C(C#N)c2ccccc2)CC1c1ccccc1 (stereo not given)
dose: 30.0 mg/kg/injection, schedule: Q01DX005 (ip), vehicle: Klucel (hydroxypropylcellulose) (HPC)
  T/C: 103 % of control
dose: 60.0 mg/kg/injection, schedule: Q01DX005 (ip), vehicle: Klucel (hydroxypropylcellulose) (HPC)
  T/C: 107 % of control
dose: 120.0 mg/kg/injection, schedule: Q01DX005 (ip), vehicle: Klucel (hydroxypropylcellulose) (HPC)
  T/C: 93 % of control
dose: 240.0 mg/kg/injection, schedule: Q01DX005 (ip), vehicle: Klucel (hydroxypropylcellulose) (HPC)
  T/C: 104 % of control

## CNC(=O)NC1OC(CO)C(O)C1O (stereo not given)
dose: 100.0 mg/kg/injection, schedule: Q01DX001 (ip), vehicle: water
  T/C: 97 % of control
dose: 200.0 mg/kg/injection, schedule: Q01DX001 (ip), vehicle: water
  T/C: 103 % of control
dose: 400.0 mg/kg/injection, schedule: Q01DX001 (ip), vehicle: water
  T/C: 104 % of control

## COC(=O)CCn1nc(-c2ccccc2)c(-c2ccccc2)c(S(C)(=O)=O)c1=O
dose: 25.0 mg/kg/injection, schedule: Q04DX002 (ip), vehicle: distilled water + Tween-80
  T/C: 95 % of control
dose: 50.0 mg/kg/injection, schedule: Q04DX002 (ip), vehicle: distilled water + Tween-80
  T/C: 92 % of control
dose: 200.0 mg/kg/injection, schedule: Q04DX002 (ip), vehicle: distilled water + Tween-80
  T/C: 90 % of control

## C=CC1OCCCO1
dose: 60.0 mg/kg/injection, schedule: Q01DX005 (ip), vehicle: saline
  T/C: 100 % of control
dose: 120.0 mg/kg/injection, schedule: Q01DX005 (ip), vehicle: saline
  T/C: 100 % of control

## COC(=O)Nc1nc2ccc(C(=O)OC)cc2[nH]1
[4]
  T/C: 102 % of control
[5]
  T/C: 103 % of control
[6]
  T/C: 103 % of control

## CC1=NN(c2cccc(S(=O)(=O)O)c2)C(=O)C1N=Nc1cc(Cl)cc(S(=O)(=O)O)c1O.CC1=NN(c2cccc(S(=O)(=O)O)c2)C(=O)C1N=Nc1cc(Cl)cc(S(=O)(=O)O)c1O.[Cr] (stereo not given)
[7]
  T/C: 111 % of control and 119 % of control
[8]
  T/C: 120 % of control and 122 % of control
[9]
  T/C: 123 % of control
dose: 400.0 mg/kg/injection, schedule: Q01DX009 (ip), vehicle: saline
  T/C: 122 % of control

## COc1c(CC(C)O)c2c3c(CC(C)O)c(OC)c(=O)c4cc(O)c5c(c6c(c(O)cc(c1=O)c26)OCO5)c43 (stereo not given)
dose: 25.0 mg/kg/injection, schedule: Q04DX002 (ip), vehicle: saline with Tween-80
  T/C: 101 % of control
dose: 50.0 mg/kg/injection, schedule: Q04DX002 (ip), vehicle: saline with Tween-80
  T/C: 109 % of control
dose: 100.0 mg/kg/injection, schedule: Q04DX002 (ip), vehicle: saline with Tween-80
  T/C: 101 % of control
dose: 200.0 mg/kg/injection, schedule: Q04DX002 (ip), vehicle: saline with Tween-80
  T/C: 115 % of control
dose: 400.0 mg/kg/injection, schedule: Q04DX002 (ip), vehicle: saline with Tween-80
  T/C: 115 % of control

## CCOc1ccc(NC(=O)c2c(C)nc(-c3ccccc3)nc2Nc2ccc(Cl)cc2)cc1
[1]
  T/C: 90 % of control
[2]
  T/C: 90 % of control
[3]
  T/C: 94 % of control

## Nc1nc(=O)n(C2CC(O)C(CO)O2)cc1Br (stereo not given)
[4]
  T/C: 91 % of control
[5]
  T/C: 100 % of control
[6]
  T/C: 104 % of control

## C=CCn1c(=S)sc2ccccc21
dose: 6.25 mg/kg/injection, schedule: Q01DX009 (ip), vehicle: Klucel (hydroxypropylcellulose) (HPC)
  T/C: 105 % of control
[10]
  T/C: 105 % of control
dose: 25.0 mg/kg/injection, schedule: Q01DX009 (ip), vehicle: Klucel (hydroxypropylcellulose) (HPC)
  T/C: 104 % of control

## C[N+]1=P(C)(C)N=P(C)(C)[N+](C)=P(C)(C)N=P1(C)C
[11]
  T/C: 95 % of control
[12]
  T/C: 95 % of control
[7]
  T/C: 116 % of control and 95 % of control

## CCN(CC)Cc1c(O)c(N=Nc2cccc3ccccc23)cc2ccccc12
dose: 3.0 mg/kg/injection, schedule: Q01DX009 (ip), vehicle: Klucel (hydroxypropylcellulose) (HPC)
  T/C: 111 % of control
dose: 6.0 mg/kg/injection, schedule: Q01DX009 (ip), vehicle: Klucel (hydroxypropylcellulose) (HPC)
  T/C: 107 % of control
dose: 12.0 mg/kg/injection, schedule: Q01DX009 (ip), vehicle: Klucel (hydroxypropylcellulose) (HPC)
  T/C: 104 % of control
[10]
  T/C: 113 % of control

## CC1(O)C=CP(C)(=O)C1 (stereo not given)
[11]
  T/C: 108 % of control
[12]
  T/C: 110 % of control
[7]
  T/C: 111 % of control
[8]
  T/C: 100 % of control
[9]
  T/C: 86 % of control

## CCc1ccc(C(=O)O)cc1S(=O)(=O)Cl
dose: 12.5 mg/kg/injection, schedule: Q01DX009 (ip), vehicle: saline sonified
  T/C: 95 % of control
dose: 25.0 mg/kg/injection, schedule: Q01DX009 (ip), vehicle: saline sonified
  T/C: 86 % of control
dose: 50.0 mg/kg/injection, schedule: Q01DX009 (ip), vehicle: saline sonified
  T/C: 95 % of control

## OCCC(N1CCOCC1)C(O)(c1ccccc1)c1ccccc1 (stereo not given)
[1]
  T/C: 93 % of control
[2]
  T/C: 93 % of control
[3]
  T/C: 97 % of control

## N=c1c(C(N)=O)nc(/C=C/c2ccccc2)cn1O
[13]
  T/C: 90 % of control
[14]
  T/C: 90 % of control
dose: 50.0 mg/kg/injection, schedule: Q01DX009 (ip), vehicle: saline with Tween-80
  T/C: 96 % of control

## CC(C)=CCCC(C)C1=C(O)C(=O)C(C)=CC1=O (stereo not given)
dose: 12.5 mg/kg/injection, schedule: Q01DX005 (ip), vehicle: Klucel (hydroxypropylcellulose) (HPC)
  T/C: 108 % of control

## CN1C(=O)C2(CC2C(=O)c2ccc(Cl)cc2)c2ccccc21 (stereo not given)
dose: 2.5 mg/kg/injection, schedule: Q04DX002 (ip), vehicle: saline with Tween-80
  T/C: 108 % of control
dose: 5.0 mg/kg/injection, schedule: Q04DX002 (ip), vehicle: saline with Tween-80
  T/C: 100 % of control
dose: 10.0 mg/kg/injection, schedule: Q04DX002 (ip), vehicle: saline with Tween-80
  T/C: 99 % of control

## Nc1nc(N)c2cc(CCc3ccccc3)ccc2n1
dose: 6.25 mg/kg/injection, schedule: Q01DX009 (ip), vehicle: saline with Tween-80
  T/C: 95 % of control
[13]
  T/C: 109 % of control
[14]
  T/C: 90 % of control
dose: 50.0 mg/kg/injection, schedule: Q04DX003 (ip), vehicle: saline with Tween-80
  T/C: 104 % of control
dose: 100.0 mg/kg/injection, schedule: Q04DX003 (ip), vehicle: saline with Tween-80
  T/C: 109 % of control

## CCOCCN(CCOCC)c1ncnc2nc[nH]c12
dose: 50.0 mg/kg/injection, schedule: Q01DX005 (ip), vehicle: saline
  T/C: 102 % of control
dose: 100.0 mg/kg/injection, schedule: Q01DX005 (ip), vehicle: saline
  T/C: 102 % of control
dose: 200.0 mg/kg/injection, schedule: Q01DX005 (ip), vehicle: saline
  T/C: 98 % of control
